Measurements reported in patent US20230292776A1, “GAS PHASE TREATMENT OF PRODUCE” (priority 2022, published 2023).

System: Colletotrichum gloeosporioides (Cg)
Test: Antifungal activity against Colletotrichum gloeosporioides (Cg) in wounded, infected avocados
Format: in vivo
Conditions: for reduction of the incidence of Cg mold compared to the untreated test group: vapor of 3 mL in a Petri dish; for incidence of Cg mold: day 5
Experimental: Example 7. The antifungal activity of AITC and DADS vapor against Colletotrichum gloeosporioides (Cg) was tested in avocados. All test pieces were wounded by removing the stem and infected by dispensing 1000 Cg spores suspended in 10 μL of water into the wound. The test groups consisted of avocados that were: untreated and uninfected; untreated and infected; treated by dipping in a solution of 0.1 g/L of prochloraz; exposed to the vapor of 3 mL of AITC disposed in a Petri dish; and exposed to the vapor of 3 mL of DADS disposed in a Petri dish. FIG. 9 quantifies the infection results. AITC vapor reduced the incidence of Cg mold by 97% compared to the untreated test group and 70% compared to the prochloraz treated test group. DADS vapor reduced the incidence of Cg mold by 60% compared to the untreated test group.
Example 8. The antifungal activity of a range of DADS vapor exposure times was tested against Cg in avocados. All test pieces were wounded by removing the stem and infected by dispensing 1000 Cg spores suspended in 10 μL of water into the wound. The test groups consisted of avocados that were: infected and untreated; and exposed to the vapor of 3 mL of DADS in a Petri dish for 24 hours, 48 hours, and 72 hours. FIG. 10 quantifies the infection results. Test group exposed to DADS vapor at all exposure times reduced the incidence of Cg mold compared to the untreated test group. A 24 hour DADS exposure reduced the incidence of Cg mold by 8%. A 48 hour DADS exposure reduced the incidence of Cg mold by 25%. A 72 hour DADS exposure reduced the incidence of Cg mold by 57%.
Example 9. The antifungal activity of a range of AITC and carvacrol vapor exposure times was tested against Cg in avocados. To measure the effect of the various treatments on ripening, durometer shore was taken after 7 days of incubation at ambient temperature and high humidity. All samples were wounded by removing the stem and infected by dispensing 1000 Cg spores suspended in 10 μL of water in the wound. The test groups consisted of avocados that were: infected and left untreated on the benchtop; infected and left untreated under a fume hood; exposed to the vapor of 3 mL of AITC in a Petri dish for 24 hours, 48 hours, and 72 hours; and exposed to the vapor of 3 mL of carvacrol in a Petri dish for 72 hours. FIG. 11 quantifies the infection results. […] All exposure times to AITC vapor reduced the incidence of Cg mold compared to the untreated samples. A 24 hour AITC exposure reduced the incidence of Cg mold by 90%. A 48 hour AITC exposure reduced the incidence of Cg mold by 97%. A 72 hour AITC exposure reduced the incidence of Cg mold by 83%.
Example 10. The antifungal activity of a range of AITC vapor exposure times were tested against Cg in avocados. To measure the effect of the various treatments on ripening, durometer shore was taken after 6 days of incubation at ambient temperature and high humidity. All samples were wounded by removing the stem and infected by dispensing 1000 Cg spores suspended in 10 μL of water in each wound. The test groups consisted of avocados that were: infected and left untreated on the benchtop; infected and left untreated in a fume hood; exposed to the vapor of 3 mL of AITC in a Petri dish for 24 hours, 48 hours, and 72 hours. FIG. 13 quantifies the infection results. […] All exposure times to AITC vapor reduced the incidence of Cg mold compared to the untreated samples.
Example 21. The antifungal activity of avocados exposed to AITC vapor and prochloraz was tested against Cg in avocados. To measure the effect of the various treatments on ripening, durometer shore was taken after 5 days of incubation at ambient temperature (about 20° C. to about 25° C.) and high humidity (about 88% relative humidity to about 93% relative humidity). All samples were wounded by removing the stem and infected by dispensing 1000 Cg spores suspended in 10 μL of water in the wound. […]

Row | Compound | reduction of the incidence of Cg mold compared to the untreated test group (Example 7, avocados) [%] | reduction of the incidence of Cg mold compared to the prochloraz treated test group (Example 7, avocados, vapor of 3 mL, prochloraz 0.1 g/L dip) [%] | reduction of the incidence of Cg mold (Example 9, avocados, vapor of 3 mL, 24 hour exposure) [%] | reduction of the incidence of Cg mold (Example 9, avocados, vapor of 3 mL, 48 hour exposure) [%] | reduction of the incidence of Cg mold (Example 9, avocados, vapor of 3 mL, 72 hour exposure) [%] | reduction of the incidence of Cg mold (Example 10, avocados, vapor of 3 mL, 24 hour exposure) [%] | reduction of the incidence of Cg mold (Example 10, avocados, vapor of 3 mL, 48 hour exposure) [%] | reduction of the incidence of Cg mold (Example 10, avocados, vapor of 3 mL, 72 hour exposure) [%] | incidence of Cg mold (Example 21, 125 μL, 30 minutes) | reduction of the incidence of Cg mold (Example 21, printed as 24 hour exposure) [%] | incidence of Cg mold (Example 22, AITC vapor 30 minutes) | reduction of the incidence of Cg mold (Example 8, avocados, vapor of 3 mL, 24 hour exposure) [%] | reduction of the incidence of Cg mold (Example 8, avocados, vapor of 3 mL, 48 hour exposure) [%] | reduction of the incidence of Cg mold (Example 8, avocados, vapor of 3 mL, 72 hour exposure) [%]
1 | C=CCN=C=S [AITC, allyl isothiocyanate] | 97 | 70 | 90 | 97 | 83 | 81.5 | 93.5 | 86.5 | reduced the incidence of Cg mold compared to the untreated samples and the prochloraz treated sample | 90 | reduced the incidence of Cg mold compared to the untreated samples, the samples treated with coating agent, and the prochloraz treated sample |  |  | 
2 | C=CCSSCC=C [DADS, diallyl disulfide] | 60 |  |  |  |  |  |  |  |  |  |  | 8 | 25 | 57
